Target: Prothrombin (Homo sapiens, UniProt P00734)
Assay: Inhibitory activity against human thrombin by amidolytic assay using chromogenic S-2238 substrate
Format: functional

Ki	SMILES
0.066 µM	CC[C@H](C)C[C@H](NC(=O)[C@H](CC(C)C)NC(=O)[C@H](CCCCN)NC(=O)[C@H](CCC(N)=O)NC(=O)[C@H](CCC(=O)O)NC(=O)CNC(=O)[C@H]1CCCCN1C(=O)[C@H](CCCN=C(N)N)NS(=O)(=O)c1ccc(C(C)(C)C)cc1)C(=O)N[C@@H](CO)C(=O)N[C@@H](CCC(=O)O)C(=O)N[C@@H](CCC(=O)O)C(=O)N[C@@H](CC(=O)O)C(=O)N[C@@H](CC(C)C)C(=O)NCC(=O)N[C@@H](CC(=O)O)C(=O)N[C@@H](Cc1ccccc1)C(=O)N[C@@H](CCC(=O)O)C(=O)N[C@@H](CCC(=O)O)C(=O)N[C@H](C(=O)N1CCC[C@H]1C(=O)N[C@@H](CCC(=O)O)C(=O)N[C@@H](CCC(=O)O)C(=O)N[C@@H](Cc1ccc(O)cc1)C(=O)N[C@@H](CC(C)C)C(=O)N[C@@H](CCC(N)=O)C(=O)O)[C@@H](C)CC
0.036 µM	CC[C@H](C)[C@H](NC(=O)[C@H](CCC(=O)O)NC(=O)[C@H](CCC(=O)O)NC(=O)[C@H](Cc1ccccc1)NC(=O)[C@H](CC(=O)O)NC(=O)CNC(=O)[C@H](CO)NC(=O)CNC(=O)[C@H](CO)NC(=O)CNC(=O)[C@H]1CCCCN1C(=O)[C@H](CCCN=C(N)N)NS(=O)(=O)c1ccc(C(C)(C)C)cc1)C(=O)N1CCC[C@H]1C(=O)N[C@@H](CCC(=O)O)C(=O)N[C@@H](CCC(=O)O)C(=O)N[C@@H](Cc1ccc(O)cc1)C(=O)N[C@@H](CC(C)C)C(=O)N[C@@H](CCC(N)=O)C(=O)O
